According to patent US20220280543A1, “DDX17 AND NLRC4 TARGETING FOR INFLAMMATORY DISEASES” (University of Virginia Patent Foundation, priority 2019, published 2022):

Experiments:
RPE degeneration = assay: Alu RNA induced RPE degeneration in mice, fundus images and ZO-1 staining; assay type: in vivo; conditions: subretinal, WT mice (FIG. 26)
Method: FIGS. 25A and 25B. NLRC4 knockdown blocks Alu RNA (SEQ ID NO: 86) induced ASC oligomerization and RPE degeneration. Human RPE cell treated with siRNA target on NLRC4 (SMARTPOOL siRNA for NLRC4: CAACUGGGCUCCUCUGUAA; SEQ ID NO: 93) and NAIP (SMARTPOOL siRNA for NAIP: GUAAAGAGCUAUAUGGAUA; SEQ ID NO: 94), 24 hours later, treated with Alu RNA (SEQ ID NO: 86 at 100 pmol) FIG. 25A. […] The band of ASC oligomers was indicated by black arrow. […] The hyperdense areas due to the RPE degeneration in fundus images and ZO-1 disorganizations in RPE sheet are indicated by white arrows.
FIG. 26. […] Wilde type of C57/B6 mice were intravitreally injected with siRNA target on Ddx17 (siRNA for Ddx17: GGCUAGAUGUGGAAGAUGU; SEQ ID NO: 95), and two days later, Nlrc4^−/−, Naip1-6^−/−, mice and Ddx17 knockdown mice were subretinally injected with Alu RNA (SEQ ID NO: 86). […] The hyperdense areas due to the RPE degeneration in fundus images and ZO-1 disorganizations in RPE sheet are indicated by white arrows.
Next, we asked whether Alu RNA (SEQ ID NO: 86) also triggered NLRC4 inflammasome activation in human RPE cells. We performed immunofluorescence staining experiments to examine whether Alu RNA (SEQ ID NO: 86) can induce NLRC4 speck formation in human RPE cells. We noticed punctate structures resembling specks of NLRC4 in human RPE cells in response to Alu RNA (SEQ ID NO: 86) treatment (FIG. 24A). […] We further investigated downstream events of NLRC4 inflammasome activation by studying NLRC4-induced ASC oligomerization, a critical step involved in caspase-1 cleavage. NLRC4 siRNA, when co-administered with Alu RNA (SEQ ID NO: 86), blocked ASC oligomerization in vitro (FIG. 25A) and RPE degeneration in vivo (FIG. 25B).
We delivered Alu RNA (SEQ ID NO: 86) or Alu RNA (SEQ ID NO: 86)+siDDX17 subretinally in WT or NLRC4 KO or NAIP1-6 KO mice and examined for RPE degeneration using fundus photos and ZO-1 staining as described previously.

DDX17 = DDX17 (Homo sapiens, UniProt Q92841); assay: DDX17 translocation in THP-1 cells, cell fractionation and immunoblot; assay type: cell-based; conditions: THP-1, Alu RNA 100 pmol (FIG. 36)
DDX17, sequence (Q92841 whole entry, species assumed): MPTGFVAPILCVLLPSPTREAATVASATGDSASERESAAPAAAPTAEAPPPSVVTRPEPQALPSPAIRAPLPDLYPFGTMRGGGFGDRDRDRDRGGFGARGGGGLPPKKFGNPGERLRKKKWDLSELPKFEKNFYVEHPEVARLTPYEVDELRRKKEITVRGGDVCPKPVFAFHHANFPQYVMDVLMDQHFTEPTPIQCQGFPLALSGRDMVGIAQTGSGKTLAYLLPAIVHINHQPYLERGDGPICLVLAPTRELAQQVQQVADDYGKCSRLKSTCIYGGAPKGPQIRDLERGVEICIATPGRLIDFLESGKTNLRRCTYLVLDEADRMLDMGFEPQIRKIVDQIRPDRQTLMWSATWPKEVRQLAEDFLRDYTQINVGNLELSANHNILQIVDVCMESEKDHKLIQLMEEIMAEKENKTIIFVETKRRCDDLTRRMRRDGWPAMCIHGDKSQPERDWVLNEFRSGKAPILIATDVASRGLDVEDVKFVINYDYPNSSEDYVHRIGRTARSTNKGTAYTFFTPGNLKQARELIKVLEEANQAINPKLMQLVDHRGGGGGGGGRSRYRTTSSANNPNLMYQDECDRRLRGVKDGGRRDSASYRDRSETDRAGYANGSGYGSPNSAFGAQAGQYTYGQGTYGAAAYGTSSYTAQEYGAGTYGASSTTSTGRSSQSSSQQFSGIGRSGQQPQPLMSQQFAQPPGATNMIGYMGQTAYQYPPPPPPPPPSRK
From the text: FIG. 36. Alu RNA (SEQ ID NO: 86) induces DDX17 translocation in human cells. Human monocytes (THP-1) were transfected with Alu RNA (SEQ ID NO: 86 at 100 pmol) using LIPOFECTAMINE™ 3000 brand transfection reagent (Lipo; ThermoFisher Scientific). Cell lysates were collected and subjected to cell fractionation. Immunoblots of DDX17 and Histone H3 were used to evaluate the subcellular distribution of DDX17. […] The bands of DDX17 in cell nucleus and cytoplasm were indicated by black arrows.
Human monocytes (THP-1) were treated with Alu RNA (SEQ ID NO: 86 at 100 pmol). Cell lysates were collected and subjected to cell fractionation. Immunoblots of DDX17 and Histone H3 were used to evaluate the subcellular distribution of DDX17.

NLRC4 and NLRP3 complex = assay: Assembly of NLRC4 and NLRP3 complex in human RPE cells, Proximity Ligation Assay; assay type: cell-based; conditions: biotinylated Alu RNA 100 pmol, PLA (FIG. 37)
Method: FIG. 37. Alu RNA (SEQ ID NO: 86) induces the assembly of NLRC4 and NLRP3 complex. Human RPE cells were transfected with biotinylated Alu RNA (SEQ ID NO: 86 at 100 pmol) by LIPOFECTAMINE™ 3000 brand transfection reagent (Lipo; ThermoFisher Scientific). The assembly of NLRC4 and NLRP3 complex was evaluated by Proximity Ligation Assay (PLA). […] The signal of NLRC4-NLRP3 complexes is indicated by the white arrow.
Human RPE cells were treated with biotinylated Alu RNA (SEQ ID NO: 86 at 100 pmol). The assembly of NLRC4 and NLRP3 complex was evaluated by Proximity Ligation Assay (PLA).

Substance: Alu RNA: human SINE RNA, SEQ ID NO: 86
- RPE degeneration induced by Alu RNA (RPE degeneration): induced RPE degeneration
- subcellular distribution of DDX17 (DDX17): induced DDX17 translocation from the nucleus to the cytoplasm
- assembly of NLRC4 and NLRP3 complex (NLRC4 and NLRP3 complex): induced the assembly
